# From patent US10704056B2, “Constitutively active ABA receptor mutants” (The Regents of the University of California, priority 2011, dated 2020)
# T1: HAB1 (Arabidopsis thaliana, UniProt Q9CAJ0)
# T1 construct: expressed in transfected cells; host or cells: S. cerevisiae strain Y190
# T1 sequence (Q9CAJ0 1-511): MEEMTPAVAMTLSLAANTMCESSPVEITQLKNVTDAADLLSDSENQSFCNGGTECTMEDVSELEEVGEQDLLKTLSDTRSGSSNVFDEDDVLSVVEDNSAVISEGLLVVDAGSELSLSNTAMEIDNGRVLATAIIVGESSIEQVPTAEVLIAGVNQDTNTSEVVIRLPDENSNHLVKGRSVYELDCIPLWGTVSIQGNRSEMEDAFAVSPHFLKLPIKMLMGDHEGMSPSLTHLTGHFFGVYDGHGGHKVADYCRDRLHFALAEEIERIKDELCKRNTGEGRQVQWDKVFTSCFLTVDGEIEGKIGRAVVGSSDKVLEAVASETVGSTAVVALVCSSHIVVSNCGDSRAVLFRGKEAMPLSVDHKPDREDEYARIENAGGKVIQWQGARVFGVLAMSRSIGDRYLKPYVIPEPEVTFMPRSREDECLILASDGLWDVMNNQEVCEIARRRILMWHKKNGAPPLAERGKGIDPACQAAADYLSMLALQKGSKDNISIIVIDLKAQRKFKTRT
# T2: PYR1 (Arabidopsis thaliana, UniProt O49686)
# T2 construct: expressed in transfected cells; host or cells: S. cerevisiae strain Y190
# T2 sequence (O49686 1-191): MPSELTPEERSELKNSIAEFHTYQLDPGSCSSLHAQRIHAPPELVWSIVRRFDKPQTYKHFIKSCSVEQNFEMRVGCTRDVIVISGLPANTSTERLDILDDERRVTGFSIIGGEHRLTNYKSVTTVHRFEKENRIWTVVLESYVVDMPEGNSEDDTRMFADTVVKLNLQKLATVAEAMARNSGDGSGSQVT
# T2 sequence (Q9CAJ0 23-511 partner): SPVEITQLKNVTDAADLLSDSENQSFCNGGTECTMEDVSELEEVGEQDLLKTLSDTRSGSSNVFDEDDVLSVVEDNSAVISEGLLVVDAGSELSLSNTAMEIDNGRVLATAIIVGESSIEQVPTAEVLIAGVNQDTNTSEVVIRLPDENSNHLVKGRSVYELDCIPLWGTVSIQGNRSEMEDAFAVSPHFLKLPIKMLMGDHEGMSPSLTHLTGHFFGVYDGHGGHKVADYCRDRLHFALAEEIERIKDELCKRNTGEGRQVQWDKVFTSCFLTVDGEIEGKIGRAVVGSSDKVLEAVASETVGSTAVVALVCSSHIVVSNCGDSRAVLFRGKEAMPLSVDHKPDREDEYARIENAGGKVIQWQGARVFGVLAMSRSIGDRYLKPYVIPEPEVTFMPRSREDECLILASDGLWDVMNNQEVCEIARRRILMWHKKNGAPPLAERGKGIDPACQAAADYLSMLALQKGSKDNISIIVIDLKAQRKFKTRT
# T3: PYL2 (Arabidopsis thaliana, UniProt O80992)
# T3 sequence (O80992 1-190): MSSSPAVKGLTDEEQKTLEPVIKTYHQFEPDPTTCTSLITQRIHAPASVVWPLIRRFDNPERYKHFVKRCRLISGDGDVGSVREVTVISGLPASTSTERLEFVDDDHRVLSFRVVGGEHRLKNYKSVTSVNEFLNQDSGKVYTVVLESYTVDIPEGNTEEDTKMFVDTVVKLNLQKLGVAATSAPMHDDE
# T4: PYR1 (Arabidopsis thaliana, UniProt O49686)
# T4 sequence (O49686 1-191): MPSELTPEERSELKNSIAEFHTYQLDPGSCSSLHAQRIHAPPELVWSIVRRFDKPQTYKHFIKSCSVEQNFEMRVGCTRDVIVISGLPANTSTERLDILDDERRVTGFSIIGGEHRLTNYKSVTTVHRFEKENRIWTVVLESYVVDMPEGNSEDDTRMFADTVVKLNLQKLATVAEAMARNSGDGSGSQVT
# T5: PYL1 (Arabidopsis thaliana, UniProt Q8VZS8)
# T5 sequence (Q8VZS8 1-221): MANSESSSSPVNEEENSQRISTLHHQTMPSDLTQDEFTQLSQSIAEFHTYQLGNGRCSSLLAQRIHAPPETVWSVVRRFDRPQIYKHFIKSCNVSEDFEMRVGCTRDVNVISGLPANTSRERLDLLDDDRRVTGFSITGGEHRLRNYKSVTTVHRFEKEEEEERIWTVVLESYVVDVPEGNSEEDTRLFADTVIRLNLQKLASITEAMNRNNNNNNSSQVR
# T6: PYL5 (Arabidopsis thaliana, UniProt Q9FLB1)
# T6 sequence (Q9FLB1 1-203): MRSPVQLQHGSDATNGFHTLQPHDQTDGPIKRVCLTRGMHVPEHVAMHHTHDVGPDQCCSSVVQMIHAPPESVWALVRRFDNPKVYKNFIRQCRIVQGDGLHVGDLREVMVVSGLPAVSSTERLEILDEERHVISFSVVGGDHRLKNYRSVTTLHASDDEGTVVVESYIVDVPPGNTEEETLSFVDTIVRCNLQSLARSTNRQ
# Columns and labels:
# [1] = biological target: T1, HAB1; test: Yeast two-hybrid PYR1 mutant-HAB1 interaction assay (X-gal staining) in the absence of ABA; type: cell-based; conditions: no ABA
# Source text: To define sites that can be mutated to improve interactions between PYR/PYL receptors and PP2Cs, we conducted saturation mutagenesis on 39 residues in PYR1 that normally contact ABA (i.e., are within the ligand-binding pocket of PYR1) and/or PP2Cs (i.e., are within the PP2C binding interface). All 741 single-mutant variants possible at these functionally critical locations were constructed and then assayed for PP2C interactions using a yeast two-hybrid based assay. Saturation mutagenesis is a method that involves the construction of all possible amino acid variants at a given site (i.e., the generation of all 19 substitution mutants per site). We focused mutagenesis efforts on PYR1 because it is a well-characterized member of the PYR/PYL receptor family and has extensive structural data on which to guide mutagenesis studies, although it should be noted that the sites targeted display high sequence conservation among the PYR/PYL receptors (FIG. 1). Moreover, PYR1 is well suited for functional studies because its low basal activity allows its activation status to be studied using a yeast-based two-hybrid assay in which wild-type PYR1 will only bind to the PP2C HAB1 (or other PP2Cs) when the appropriate yeast cells are grown in the presence of ABA. […]
# [2] = biological target: T2, PYR1; test: Yeast two-hybrid wild-type PYR1-HAB1 interaction with added ABA; type: cell-based; conditions: wild-type PYR1, 10 μM ABA
# Protocol: 29 of 741 PYR1 mutants constructed, located in 10 different residues, increase the interaction between PYR1 and HAB1 in the absence of ABA, as measured using the yeast two hybrid assay (upper left panel). […] Each graph includes control wild-type PYR1 protein tested in the absence (diamonds) and presence (squares) of 10 μM ABA. Specific mutant proteins (triangles) were tested in the absence of ABA. […] Plotted in each graph is PP2C activity, expressed as % of control, which is the PP2C activity measured in the absence of ABA or receptor protein.
# To define sites that can be mutated to improve interactions between PYR/PYL receptors and PP2Cs, we conducted saturation mutagenesis on 39 residues in PYR1 that normally contact ABA (i.e., are within the ligand-binding pocket of PYR1) and/or PP2Cs (i.e., are within the PP2C binding interface). All 741 single-mutant variants possible at these functionally critical locations were constructed and then assayed for PP2C interactions using a yeast two-hybrid based assay. Saturation mutagenesis is a method that involves the construction of all possible amino acid variants at a given site (i.e., the generation of all 19 substitution mutants per site). […]
# [3] = biological target: T3, PYL2; conditions: cited from earlier work
# [4] = test system: ABA-responsive gene transcription; conditions: in vivo; cited from earlier work
# [5] = biological target: T4, PYR1; conditions: cited from earlier work
# [6] = biological target: T5, PYL1; conditions: cited from earlier work
# [7] = biological target: T6, PYL5; conditions: cited from earlier work
# [8] = test system: aba2-1 mutant seeds; test: Germination of aba2-1 background seeds on paclobutrazol or NaCl; type: in vivo, Arabidopsis; conditions: 35S-driven transgene, germination 72 hours
# Source text: As a further test of the ability of PYL2^CA3 to activate ABA signaling in vivo, we examined the ability of this allele to revert phenotypes caused by ABA deficiency, reasoning that effective activation of the ABA pathway should suppress phenotypes observed in the aba2 mutant. […] To test this, we examined the germination of various genotypes on paclobutrazol, an inhibitor of GA biosynthesis. Wild-type seed germination is blocked by paclobutrazol treatment but aba2 mutants germinate due to defects in ABA-induced seed dormancy. We also examined the germination of various genotypes in the presence of NaCl, which, like paclobutrazole, inhibits seed germination in an ABA- and aba2-dependent manner (Gonzalez-Guzman M. et al. (2002) Plant Cell 14(8):1833-1846; Leon-Kloosterziel K M, et al. (1996) Plant J 10 (4):655-661). […] Thus, expression of PYL2^CA3 in developing seeds is sufficient to activate an ABA-dependent physiological process despite the depleted ABA levels present in the aba2 background.
# Germination tests on paclobutrazol (Wako Chemicals, Japan) and NaCl were conducted as following. Columbia, aba2-1, aba2-1; 35S::GFP-PYL2 and aba2-1; 35S::GFP-PYL2″^3 seeds were surface sterilized and plated onto ⅓ MS agar media containing 25, 50 or 100 μM paclobutrazol or 0, 50, 200, 250 mM NaCl. Control wells contained ⅓ MS agar and 0.1% DMSO, the carrier solvent for paclobutrazol. The seeds were stratified for four days in darkness and then transferred to continuous illumination at room temperature (23° C.). Germination was assayed after 72 hours; seeds showing radicals at least ½ seed length or greater were scored as positive. Each experiment was performed in triplicate; experiments were performed on seeds that were ˜6-months post-harvest.
# [9] = test system: Columbia seeds; test: Seed dormancy / germination assay of 35S-driven transgenic lines, stratified vs unstratified; type: in vivo, Arabidopsis; conditions: 35S-driven overexpression in wild-type Columbia background
# Protocol: To investigate the effects of the PYL2^CA3 allele, we performed a number of physiological assays on wild-type and aba2-1 genotypes. Columbia (Col), 35S::PYL2, and 35S::PYL2^CA3 seed samples were divided into two portions; one portion was stratified on ⅓ MS plates for 6 days at 4° C. and the second portion was plated six days later ⅓ MS plates. Both samples were the transferred to room temperature (23° C.) and incubated in darkness. […] Each experiment was performed in triplicate and each point plotted represents the average of tests conducted using 40 to 70 seeds. […] Thus, overexpression of PYL2^CA3 activates the ABA-regulated seed dormancy pathway.
# In order to assay dormancy of seeds for Columbia, 35S::GFP-PYL2, and 35S::GFP-PYL2^CA3 were divided into two portions and surface sterilized using chlorine gas (prepared in situ using bleach and HCl). One portion was stratified on ⅓ MS agar plates for 6 days at 4° C. in darkness and the second portion, which was maintained at room temperature, was seeded six days later on the ⅓ MS agar plates; both samples were transferred to a 23° C. light-tight growth chamber and germination scored at 24 hour periods. The homozygous 35S::GFP-PYL2 and 35S::GFP-[…] seeds used in these experiments were ˜5- and ˜6-months post-harvest respectively at the time of the experiment shown in FIG. 12.
molecule,measurement,setting,value
PYR1: wild-type Arabidopsis ABA receptor PYR1 (SEQ ID NO:1),PYR1-HAB1 interaction in the absence of added ABA,[1],does not bind HAB1
"CC1=CC(=O)CC(C)(C)[C@@]1(O)/C=C/C(C)=C\C(=O)O [ABA, Abscisic acid]",interaction between PYR1 and HAB1,[2],promotes a strong interaction
O=S(=O)(NCc1ccccn1)c1ccc(Br)c2ccccc12 [pyrabactin],activity on PYL2,[3],weak partial-agonist/antagonist activity
same,ABA-responsive gene transcription in seeds,[4],essentially activates the full complement of ABA-responsive gene transcription in seeds
same,agonist activity on PYR1,[5],strong agonist activity
same,agonist activity on PYL1,[6],strong agonist activity
same,activity on PYL5,[7],weak partial-agonist/antagonist activity
"PYL2: wild-type ABA receptor PYL2 (SEQ ID NO:3), overexpressed as control (protein, listed as Arabidopsis thaliana, thale cress PYR/PYL receptor, abscisic acid receptor PYL2, PYR1-like protein 2 (PYL2), ABI1-binding protein 6 (ABIP6), regulatory components of ABA receptor 14 (RCAR14), Bet v I allergen family protein, At2g26040, T19L18.15) MSSSPAVKGLTDEEQKTLEPVIKTYHQFEPDPTTCTSLITQRIHAPASVVWPLIRRFDNPERYKHFVKRCRLISGDGDVGSVREVTVISGLPASTSTERLEFVDDDHRVLSFRVVGGEHRLKNYKSVTSVNEFLNQDSGKVYTVVLESYTVDIPEGNTEEDTKMFVDTVVKLNLQKLGVAATSAPMHDDE",NaCl resistance of aba2 mutant seed germination,[8],unable to suppress
same,paclobutrazol resistance of aba2 mutant seed germination,[8],unable to suppress
same,seed hyperdormancy (stratification dependent germination),[9],not
